Measured values from US6417222B1, “[2-substituted-5-[3-thienyl)-benzyl]-2- ([2-isopropoxy-5-fluoro]-phenyoxy)-ethyl]-amine derivatives, method for the production and use thereof as medicaments” (Pierre Fabre Medicament, priority 1999, dated 2002).

Key:
D2 receptors = target: T1, D2 receptors (Rattus norvegicus, UniProt P61169); assay: Inhibition of the behavior induced by methylphenidate (antidopaminergic activity in vivo); settings: rats, oral administration, read-out: Normalization ED50
T1 construct: from tissue; host or cells: whole living rat (central nervous system)
T1 sequence (P61169 whole entry): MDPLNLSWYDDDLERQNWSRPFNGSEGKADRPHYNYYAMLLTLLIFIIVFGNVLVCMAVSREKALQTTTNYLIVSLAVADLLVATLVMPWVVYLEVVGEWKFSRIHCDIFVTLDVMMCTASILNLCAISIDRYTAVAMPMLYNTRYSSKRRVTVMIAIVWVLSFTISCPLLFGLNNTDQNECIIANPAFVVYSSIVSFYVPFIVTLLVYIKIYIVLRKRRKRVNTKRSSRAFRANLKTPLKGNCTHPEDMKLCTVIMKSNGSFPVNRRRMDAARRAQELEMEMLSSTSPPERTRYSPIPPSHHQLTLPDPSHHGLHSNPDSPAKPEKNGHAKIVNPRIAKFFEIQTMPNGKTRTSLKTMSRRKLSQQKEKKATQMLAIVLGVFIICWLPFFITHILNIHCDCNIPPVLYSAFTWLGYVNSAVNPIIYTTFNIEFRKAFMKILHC
Description: (§1) 2—Evaluation of the antagonist activity of the D2 receptors and of the cataleptogenic effects of the compounds of the invention in vivo

receptors of the D2 type = receptors of the D2 type (Homo sapiens, UniProt P14416); assay: Affinity for D2 receptors by displacement of (3H) YM-09151-2; format: binding; settings: mean of at least 3 experiments, read-out: D2 pKi (converted)
Chain of receptors of the D2 type (P14416 whole entry): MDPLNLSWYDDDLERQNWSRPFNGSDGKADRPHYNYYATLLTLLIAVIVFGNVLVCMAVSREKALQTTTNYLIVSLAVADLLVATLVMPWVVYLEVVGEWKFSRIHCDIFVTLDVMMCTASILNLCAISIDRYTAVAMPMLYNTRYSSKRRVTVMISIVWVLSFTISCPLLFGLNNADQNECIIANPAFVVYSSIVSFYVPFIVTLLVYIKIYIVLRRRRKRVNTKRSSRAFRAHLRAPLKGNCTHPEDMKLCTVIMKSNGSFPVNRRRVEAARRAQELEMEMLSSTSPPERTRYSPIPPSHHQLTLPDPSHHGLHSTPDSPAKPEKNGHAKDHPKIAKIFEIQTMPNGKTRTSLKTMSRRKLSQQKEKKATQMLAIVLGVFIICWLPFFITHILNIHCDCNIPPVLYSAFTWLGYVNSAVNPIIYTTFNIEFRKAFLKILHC
Experimental: 1—Measurement of the affinity of the compounds of the invention for the D2 receptors.
The affinity of the compounds of the invention for the receptors of the D2 type was determined by measuring the displacement of (^3H) YM-09151-2 (NET-1004 70-87 Ci/mmol), according to the method described in Naunyn-Schimiedeberg's Arch. Pharmacol. Methods, 1985, 329, 333. The pKi values (−log Ki) are given in the form of a mean ±SEM of at least 3 experiments.

[1] = Cataleptogenic power (extrapyramidal side effects); settings: rat, in vivo; rats, oral administration; read-out: Catalepsy ED50
Description: as §1
The test for evaluating the propensity of the products of the invention to cause side effects of extrapyramidal order is based on their cataleptogenic power, measured in rats, according to the method described in Eur. J. Pharmacol. 1996, 313, 25.

Row | Ki (receptors of the D2 type) | SMILES | ED50 (D2 receptors) | ED50 [1]
1 |  | Cc1nc2n(c(=O)c1CCN1CCC(c3noc4cc(F)ccc34)CC1)CCCC2 [Risperidone, reference compound] | 6.5 mg/kg | 
2 | 0.355 nM | CC(C)Oc1ccc(F)cc1OCCNCc1cccc(-c2ccsc2)c1 [la, [3-(3-Thienyl)benzyl]-[2-([5-fluoro-2-isopropoxy]-phenoxy)ethyl]amine] | 0.7 mg/kg | > 40 mg/kg
